This is an account of results in patent US8834848B2, “Flow and volume regulated inhalation for treatment of severe oral corticosteroid-dependent asthma” (Activaero GmbH Research & Development, priority 2009, dated 2014).

Series [1] in a line: Clinical trial: budesonide serum concentration analysis. It counts as in vivo, human. Particulars: baseline to week 18; roughly 12 hours dosing interval. As for the experimental part: For budesonide serum concentration analysis, blood was drawn in all four investigated groups either before inhalation or 30-60 minutes following inhalation at baseline (post-inhalation) and at week 18 (pre- and post-inhalation). Results are seen in FIG. 10.

The conditions of series [2]: human, in vivo. The procedure:
Thus the flow-controlled, slow inhalation at about 200 ml/sec enables maximum drug deposition in the target area of small airways. As further seen in FIG. 12, such inhalation method leads to an alveolar drug deposition of 40 to 50%. In contrast, alveolar deposition is below 10% when using a high inspiratory flow rate of 1000 ml/sec and a small inhalation volume of 350 ml, and it is 20-30% when using an inspiratory flow rate of 1000 ml/sec and an inhalation volume of 1800 ml. It is thus preferred to combine the controlled, slow flow rate of e.g. 200 ml/sec with higher inhalation volumes. As mentioned above, said inhalation volumes depend on the individual patient's lung function and the severity grade of the pulmonary disease, but in cooperation between physician and patient, a volume as high as is well tolerable for the patient can be chosen (see also Table 7).

For series [3] the following is noted: after IV or inhalation administration; cited from earlier work.
Series [4] has as its system oral steroid-dependent asthma subjects. Particulars: nominal 4-8 mg daily, conventional nebulizer; cited from earlier work.
A further series relates to healthy volunteers. The following applies: inhalation; cited from earlier work.
Series [5] relates to children with acute exacerbated asthma. The following applies: nebulized; cited from earlier work.
In the next series the test system is asthmatic children. The following applies: 50 or 100 μg twice a day via dry powder inhaler; cited from earlier work.
For series [6], the system named is patients with chronic oral dependent asthma. The following applies: cited from earlier work.
The subject of the next series is chronic asthma. Particulars: at half the daily dose of beclomethasone or budenoside; cited from earlier work.
The subject of series [7] is asthma in adults and children. Particulars: 2000 μg once a day, AKITA protocol; cited from earlier work.
The test system of a further series is asthma patients. Particulars: cited from earlier work.
Series [8] relates to patients with severe chronic asthma. Particulars: 500 or 1000 μg twice daily; cited from earlier work.

The structures appear in SMILES notation.

For `CCCC1O[C@@H]2C[C@H]3[C@@H]4CCC5=CC(=O)C=C[C@]5(C)[C@H]4[C@@H](O)C[C@]3(C)[C@]2(C(=O)CO)O1` (stereo partly drawn) [budesonide], the “accumulation of budesonide in serum” value in [1] is “did not accumulate in serum”. Further, the alveolar drug deposition in series [2] is given as 40-50%. For the same compound, the elimination half-life in series [3] was 2.2 to 4.5 h. The “subjects with side effects like oral thrush or disturbing sore throat” value in series [4] is reported as 11%.
On to `CCC(=O)O[C@]1(C(=O)SCF)[C@H](C)C[C@H]2[C@@H]3C[C@H](F)C4=CC(=O)C=C[C@]4(C)[C@@]3(F)[C@@H](O)C[C@@]21C` [fluticasone propionate], for which the “relative lung dose, large volume (750 ml) spacer versus nebulizer” value in the series on healthy volunteers is “sevenfold”. In addition, the “efficacy compared to oral prednisolone” value in [5] is listed as “at least as effective as oral prednisolone”. The “patients reporting adverse effects” value in the series with asthmatic children is 51%. The “patients who discontinued the treatment” value in series [6] (4000 μg/day nebulized) is reported as 37%. The “reduction in the need for orally administered prednisone, 4000 μg versus 1000 μg per day” value in series [6] (nebulized, bid) is “significantly greater”. Also, in the series on chronic asthma, the adverse side effects result was “higher risk of pharyngitis and other adverse side effects”; the “effect on FEV1” value is listed as “improvement of forced expiratory volume in the first second (FEV1)”. In series [7], the FEV1 improvement is 17.1%, the “amount of administered dose that reached the central portion of the lungs (estimated)” value was 500 to 700 µg and the “reduction in oral steroid use” value is 33.2%. In addition, the “reduction of need for oral prednisolone” value in the series with asthma patients (2000 μg per day versus 1500 or 1000 μg/day) is “more likely to reduce a need for oral prednisolone”. Also, the “hoarseness and oral candidiasis” value with asthma patients (higher doses) is “significantly greater”. In addition, in series [8], the adverse effects entry is reported as “topical adverse effects associated with inhaled corticosteroids were observed” and the oral corticosteroid-sparing effect result is “eliminated a need for oral prednisone”.
